Results: US12011459B2, “Methods for manufacturing T cells by direct sorting and compositions thereof” (Immatics US, Inc., priority 2019, dated 2024)
Where “and” joins values, the source holds several entries; their conditions need not be identical. Identical values can stand only once.

How the values were obtained:
PBMC = test: Col6A3-002 2D tetramer staining of PBMC with dasatinib treatment, flow cytometry; format: cell-based, human; conditions: for 2D PE/BV421 Tet-positive and irrelevant peptide APC tetramer-negative events: 4° C.
Method: To compare the effects of PKI and temperatures on pMHC multimer staining, healthy donor peripheral blood mononuclear cells (PBMCs) were pretreated with 50 nM Dasatinib (FIG. 21A) or untreated (FIG. 21B) and then stained with two Col6A3-002 peptide (FLLDGSANV (SEQ ID NO: 141)) (Col) tetramers (2Dtet) conjugated to streptavidin BV421 and PE, and five different irrelevant APC tetramers (peptide 1, peptide 2, peptide 3, peptide 4, and peptide 5) at either 37° C. (FIG. 21A) or room-temperature (RT) (FIG. 21B) for 30 minutes. Following tetramer staining, samples were counterstained with tetramer stabilizing antibodies staining against PE and APC at 4° C., followed by staining with anti-CD45 PE-Cy7 antibody at 4° C.
To determine which staining conditions that may provide lowest background and lowest false positive rate, PBMC were stained with or without PKI treatment, e.g., dasatinib (DAS), with or without irrelevant peptide tetramer mix at different tetramer staining temperatures (Hadrup et al., Nat. Methods, 2009, 6:520-526; the content of which is hereby incorporated by reference in its entirety). For example, PBMC cells were stained with 2D Tet (PE+BV421) in the presence or in the absence of irrelevant peptide tetramer mix, e.g., five different irrelevant peptides (e.g., Col6A3-015 (YLMDDFSSL (SEQ ID NO: 16)), MAG-003 (KVLEHVVRV (SEQ ID NO: 118)), MAGEC2-001 (TLDEKVAEL (SEQ ID NO: 161)), MXRA5-003 (LLWGHPRVALA (SEQ ID NO: 18), and MAGEA1-003 (KVLEYVIKV (SEQ ID NO: 105)) APC tetramers±DAS treatment, at 37° C. or at room temperature (RT). DAS treatments were performed at 37° C.
To investigate PBMC staining under conditions D and G, PBMC (12.5×10^6 cells/ml) obtained from 4 donors were stained±DAS treatment (50 nM, at 37° C.), Col6A3-002 BV421 tetramer (3 μg/ml) and Col6A3-002 PE Tetramer (2.5 μg/ml), fluorochrome-labeled anti-CD45 antibody, e.g., PE-Cy7 mouse anti-human CD45 (BD Biosciences), Col6A3-002 BV421 tetramer (3 μg/ml), and APC irrelevant peptides (n=5, e.g., Col6A3-015 (YLMDDFSSL (SEQ ID NO: 16)), MAG-003 (KVLEHWRV (SEQ ID NO: 118)), MAGEC2-001 (TLDEKVAEL (SEQ ID NO: 161)), MXRA5-003 (LLWGHPRVALA (SEQ ID NO: 18), and MAGEA1-003 (KVLEYVIKV (SEQ ID NO: 105)) tetramer mix (3 μg/ml) with all staining, spins, and washes at 4° C.
The experiments shown in FIGS. 37A-37D were repeated using a different fluorochrome-labeled anti-CD45 antibody, e.g., PE-Cy™7 mouse anti-human CD45 (BD Biosciences). PBMC (10×10^6 cells/nil) obtained from 4 donors were stained with or without DAS treatment (50 nM, at 37° C.), BV421 (3 μg/ml), Col6A3-002 2D Tet (PE+BV421) (2.5 μg/ml), PerCP-Cy™5.5 mouse anti-human CD45 (BD Biosciences), Col6A3-002 BV421 tetramer (3 μg/ml), and APC (n=5) irrelevant tetramer mix (3 μg/ml) with all staining, spins, and washes at 4° C.

[1] = test system: Col6A3 REP1 cells (αCol6A3 T cells); test: Col6A3-002 2D tetramer staining of Col6A3 REP1 cells with dasatinib treatment, flow cytometry; format: cell-based; conditions: for background staining of BV421/APC double-positive irrelevant peptide T cells (Q2): bench and centrifugation at 4° C.
Method: To determine which staining conditions that may provide higher staining index (SI), indicating better separation of cells stained positive from cells stained negative, and lower false negative rate, Col6A3 REP1 cells, which were prepared by rapid expansion protocol (REP), were stained±DAS treatment (at 37° C.), ±irrelevant peptide tetramer mix, and staining at RT or 37° C.
Staining index (SI) may be calculated by using formula (I): SI=(mean PE+mean BV421 2Dtet+)−(mean PE+mean BV421 2Dtet−)/2×(SD PE+SD BV421 2Dtet−). […] (P=0.316695), and ±irrelevant peptide tetramer mix (P=0.597223).
The estimation per 1×10^6 based on flow %, which indicates numbers of peptide-specific T cells per 1×10^6 of CD45+ cells, may be calculated by the formula: (2Dtet+%×1×10^6/100)−((2Dtet+%×1×10^6/100)×irrelevant peptide tetramer mix+%/100)). Table 14 summarizes the estimations under the staining conditions A-G. DAS treatment was performed at 37° C. for 30 minutes.

[2] = test system: αCol6A3 T cells spiked in PBMC (1:1×10^5); test: Col6A3-002 2D tetramer staining of αCol6A3 T cells spiked in PBMC, condition #1; format: cell-based; conditions: staining at 37° C.
Method: Condition #1: with DAS treatment+irrelevant peptide tetramer mix, staining at 37° C.
Sample #2: αCol6A3 T cells spiked in PBMC (1:1×10^5), about 2×10^6 CD45+cells acquired

[3] = test system: Col6A3 REP1 cells (αCol6A3 T cells); test: Col6A3-002 2D tetramer staining of Col6A3 REP1 cells with dasatinib treatment, flow cytometry; format: cell-based; conditions: Col6A3 PEP1 cells
[4] = PBMC, DAS treatment, staining at RT, with irrelevant peptide APC tetramer mix
[5] = DAS treatment, staining at 37° C., with irrelevant peptide APC tetramer mix, listed as DAS
[6] = DAS treatment, staining at RT, with irrelevant peptide APC tetramer mix
[7] = DAS treatment + irrelevant peptide tetramer mix

Cc1nc(Nc2ncc(C(=O)Nc3c(C)cccc3Cl)s2)cc(N2CCN(CCO)CC2)n1 [Dasatinib, dasatinib]
2D PE/BV421 Tet-positive and irrelevant peptide APC tetramer-negative events (PBMC; PBMC sample S1, in 1.29×10^7 lymphocytes acquired, DAS): 128 events | 2D PE/BV421 Tet-positive and irrelevant peptide APC tetramer-negative events (PBMC; PBMC sample S2, in 6.09×10^6 lymphocytes acquired, DAS): 68 events | 2D PE/BV421 Tet-positive and irrelevant peptide APC tetramer-negative events (PBMC; PBMC sample S3, in 9.71×10^5 lymphocytes acquired, DAS): 23 events | 2D PE/BV421 Tet-positive and irrelevant peptide APC tetramer-negative events (PBMC; PBMC sample S4, in 5.35×10^6 lymphocytes acquired, DAS): 80 events | 2D Tet (PE+BV421) double-positive cells (Q2) of CD45+ cells (PBMC; PBMC, 50 nM dasatinib treatment, Tet staining at 37° C., with irrelevant peptide APC tetramer mix): 0.027% | 2D Tet (PE+BV421) double-positive cells (Q2) of CD45+ cells (PBMC; PBMC, DAS 50 nM at 37° C., all staining, spins, washes at 4° C., with irrelevant mix, FIG. 37A): 4.23E-3% | 2D Tet (PE+BV421)-positive and irrelevant peptide-negative cells in Q2 cells (PBMC; PBMC, DAS 50 nM, all staining, spins, washes at 4° C., FIG. 37A): 46.5% | 2D Tet (PE+BV421) double-positive cells (Q2) of CD45+ cells (PBMC; PBMC, DAS treatment, staining at 37° C., absence of irrelevant peptide APC tetramer mix): 0.19% | APC-negative/BV421-positive cells (true Col6A3-specific T cells, Q1) in Q2 cells (PBMC; PBMC, DAS treatment, staining at 37° C., with irrelevant peptide APC tetramer mix): 0.93% | irrelevant peptide positive T cells in the BV421/PE double-positive (Q2) cells (PBMC; PBMC, DAS treatment, staining at 37° C., with irrelevant peptide APC tetramer mix, listed as DAS): 98.2% and 99.1% | 2D Tet (PE+BV421) double-positive cells (Q2) of CD45+ cells (PBMC; PBMC, DAS treatment, staining at RT, absence of irrelevant peptide APC tetramer mix): 7.17E-3% | 2D Tet (PE+BV421) double-positive cells (Q2) of CD45+ cells (PBMC; [4]): 8.04E-3% | APC-negative/BV421-positive cells (true Col6A3-specific T cells, Q1) in Q2 cells (PBMC; [4]): about 4.76% | irrelevant peptide positive T cells in the BV421/PE double-positive (Q2) cells (PBMC; [4]): 95.2% | final frequency: one Col Tet+ T cell in N CD45+ cells (PBMC; PBMC, dasatinib treatment, staining at 37° C., with irrelevant APC tetramers): 4×10^5 CD45+ cells | 2D PE/BV421 Tet-positive and irrelevant peptide APC tetramer-negative events (PBMC; PBMC, in 4.78×10^6 lymphocytes acquired, DAS): 94 events | increase of MFI (PBMC; in ¼ of DAS-treated samples): about 2 × | 2D PE/BV421 Tet-positive and irrelevant peptide APC tetramer-negative cells detected (PBMC; only PBMC, in 2×10^6 CD45+ cells acquired, DAS, staining at 37° C.): 5 cells | irrelevant peptide positive T cells in Q2 cells [1, 5]: 6.38% and 3.18% | staining index (SI) [1, 5]: 19.0 and 15.6 | 2D Tet (PE+BV421) double-positive cells (Q2) of CD45+ cells [1, 6]: 55.8% | APC-negative/BV421-positive cells (true Col6A3 REP1 cells, Q1) in Q2 cells [1, 6]: about 78.4% | irrelevant peptide positive T cells in Q2 cells [1, 6]: 21.6% | staining index (SI) [1, 6]: 24.0 | Estimation per 1e6 based on flow % (peptide-specific T cells per 1×10^6 CD45+ cells) ([1]; condition A: Dasatinib +, Tet stain 37, bench RT, centrifuge RT): 2.24 × 10^5 per 1e6 | background staining of BV421/APC double-positive irrelevant peptide T cells (Q2) ([1]; condition C: DAS, Tet staining at 37° C.): 2.01% | Estimation per 1e6 based on flow % (peptide-specific T cells per 1×10^6 CD45+ cells) ([1]; condition C: Dasatinib +, Tet stain 37, bench 4, centrifuge 4): 5.61 × 10^5 per 1e6 | background staining of BV421/APC double-positive irrelevant peptide T cells (Q2) ([1]; condition D: DAS, Tet staining): 13.7% | Estimation per 1e6 based on flow % (peptide-specific T cells per 1×10^6 CD45+ cells) ([1]; condition D: Dasatinib +, Tet stain 4, bench 4, centrifuge 4): 6.75 × 10^5 per 1e6 | background staining of BV421/APC double-positive irrelevant peptide T cells (Q2) ([1]; condition F: DAS, Tet staining at RT): 3.07% | Estimation per 1e6 based on flow % (peptide-specific T cells per 1×10^6 CD45+ cells) ([1]; condition F: Dasatinib +, Tet stain RT, bench 4, centrifuge 4): 6.75 × 10^5 per 1e6 | 2D PE/BV421 Tet double-positive cells (Q2) of CD45+ cells [2, 7]: 0.035% | APC-negative/BV421-positive cells (true αCol6A3 T cells, Q1) in Q2 cells [2, 7]: about 2.58% | BV421/APC double-positive irrelevant peptide T cells in Q2 cells [2, 7]: 97.4% | one αCol6A3 T cell in N CD45+ cells [2, 7]: 1×10^5 CD45+ cells | 2D PE/BV421 Tet-positive and irrelevant peptide APC tetramer-negative events ([2]; in 2×10^6 CD45+ cells acquired, DAS): 18 events | 2D Tet (PE+BV421)-positive and irrelevant peptide-negative cells in Q2 cells ([3]; DAS treatment, 4° C., FIG. 39): 95.8% | 2D Tet (PE+BV421) double-positive cells (Q2) of CD45+ cells ([3]; DAS treatment, all staining, spins, washes at 4° C., FIG. 39): 68.9% | 2D PE/BV421 Tet-positive and irrelevant peptide APC tetramer-negative events ([3]; in 206055 lymphocytes acquired, DAS, 4° C.): 135941 events
